Measurements published in PMC9921329, “Semisynthetic Sesquiterpene Lactones Generated by the Sensibility of Glaucolide B to Lewis and Brønsted–Lowry Acids and Bases: Cytotoxicity and Anti-Inflammatory Activities” (Molecules, 2023).

Assays:
[1] = system: SK-MEL-28 (human melanoma cell line); assay: MTT cell viability / cytotoxicity, human melanoma cells; type: cell-based; details: for Viability (%) SK-MEL-28 / CC50: MTT; for Viability (%) SK-MEL-28: 24 h incubation, mean ± SD (n = 3), test concentration not given; for CC50: 24 h, half-maximal cytotoxic concentration; for SI (selectivity index) SK-MEL-28: ratio of CC50 of non-tumoral HUVEC cells to CC50 of SK-MEL-28
Procedure: (§1) To evaluate the potential antitumoral activity of the compounds, the MTT [3-(4,5-dimethyl-2-thiazolyl)-2,5-diphenyl-2H-tetrazolium bromide] method was used to determine the cell viability of SK-MEL-28 (human melanoma cell line), NCI-H460 (human lung carcinoma cell line), SF295 (human glioblastoma cell line), and HUVEC (human umbilical vein endothelial cells) line. Cell viability analysis of murine macrophage J774A.1 was conducted using a resazurin-based cytotoxicity assay (Alamar blue®). All cell lines were acquired from the BCRJ (Rio de Janeiro Cell Bank, Federal University of Rio de Janeiro, Brazil). The cell lines were cultivated in RPMI-1640 or DMEM medium, supplemented with 1.5 g/L of sodium bicarbonate, 10 mM of HEPES, pH 7.4, 100 U/mL of penicillin G, 100 μg/mL of streptomycin, and 10% fetal calf serum at 37 °C in a humidified atmosphere consisting of 95% air and 5% CO2 cultures, and greater than 95% of viable cells in trypan blue exclusion tests were used for the experiments. Therefore, cells were seeded (1 × 10^4/well) in 96-well plates and incubated with increasing concentrations of the compounds for 24 h. After incubation, the former culture medium was replaced with a fresh culture medium with 5 mg/mL of MTT and with 0.1 mg/mL of resazurin for 2 h at 37 °C. MTT formazan crystals were dissolved in DMSO, and the absorbance of each well was measured at 540 nm, using a micro-well system reader. For the control group of each cell line, cells were incubated without the compounds and considered to have 100% cell viability. MTT formazan crystals were dissolved in DMSO, and absorbance was measured at 540 nm using a microplate reader (ELX800, Biotek, Winooski, VT, USA). The half-maximal cytotoxic concentration (CC50) values were calculated from a Hill concentration–response curve. Results were expressed as the mean ± SD of three experiments. The selectivity index (SI) was calculated via the ratio between the CC50 of non-tumoral cells and the tumoral cell lines. […] For the resazurin assay, fluorescence was measured at 1 h intervals using a plate multi-reader (Infinite Multireader m200 Tecan) at 530–590 nm. Nonlinear regression of each fraction versus percentage cell viability was performed to obtain a 10% toxicity concentration (a concentration causing 90% cell viability) using GraphPad Prism 8.0 software (GraphPad Software, San Diego, CA, USA).

[2] = system: NCI-H460 (human lung carcinoma cell line); assay: MTT cell viability, human lung carcinoma cells; type: cell-based; details: 24 h incubation, mean ± SD (n = 3), test concentration not given
Procedure: as §1

[3] = system: SF295 (human glioblastoma cell line); assay: MTT cell viability, human glioblastoma cells; type: cell-based; details: 24 h incubation, mean ± SD (n = 3), test concentration not given
Procedure: as §1

[4] = system: LPS-stimulated M1 macrophages J774A.1 (NOx); assay: Total nitrite nitrate (NOx) release from LPS-stimulated macrophages (Griess); type: cell-based, murine; details: for Anti-inflammatory activity, NOx release (in words): compound at CC10, LPS 10 μg/mL; for Reduction of NOx release vs control M1 cells (LPS+ group): compound at CC10, pre-treatment 15 min, LPS 10 μg/mL, 24 h
Procedure: (§2) The in vitro anti-inflammatory activity was performed in murine macrophage J774A.1 and analyzed after modifications to the protocol previously described by […] and coworkers. The evaluation consisted of measuring the production of nitrite through an indicator of NO synthesis in supernatants from LPS-activated macrophages. A number of 1 × 10^5 cells/well were seeded in 96-well plates for 24 h, after which time the culture medium was changed, and the CC10 concentration (Figure S70, found in the Supplementary Materials) of each compound was added to the medium containing DMEM supplemented with 10% FBS. After 15 min, macrophages were stimulated with 10 μg/mL of LPS and incubated for 24 h to obtain a proinflammatory M1-phenotype. Subsequently, supernatants were collected and total nitrite nitrate (NOx) was measured by adding 100 μL of Griess' reagent (1% sulfanilamide and 0.1% N-(1-naphthyl) ethylenediamine in 0.5% phosphoric acid). Absorbance was determined with a microplate reader (ELX800, BioTek, Winooski, VT, USA) at 540 nm. In addition, the proinflammatory cytokine IL-6 was determined using an enzyme-linked immunosorbent assay (ELISA) (BD Bioscience, San Jose, CA, USA) according to the manufacturer's instructions.

[5] = system: LPS-stimulated M1 macrophages J774A.1 (IL-6); assay: Interleukin-6 release from LPS-stimulated macrophages (ELISA); type: cell-based, murine; details: for Anti-inflammatory activity, IL-6 release (in words): compound at CC10, LPS 10 μg/mL; for Reduction of IL-6 release vs control M1 cells (LPS+ group): compound at CC10, pre-treatment 15 min, LPS 10 μg/mL, 24 h
Procedure: as §2

[6] = system: murine macrophage J774A.1; assay: Resazurin-based cytotoxicity assay (Alamar blue) in macrophages; type: cell-based; details: J774A.1, Figure S70
Procedure: To evaluate the potential antitumoral activity of the compounds, the MTT [3-(4,5-dimethyl-2-thiazolyl)-2,5-diphenyl-2H-tetrazolium bromide] method was used to determine the cell viability of SK-MEL-28 (human melanoma cell line), NCI-H460 (human lung carcinoma cell line), SF295 (human glioblastoma cell line), and HUVEC (human umbilical vein endothelial cells) line. Cell viability analysis of murine macrophage J774A.1 was conducted using a resazurin-based cytotoxicity assay (Alamar blue®). All cell lines were acquired from the BCRJ (Rio de Janeiro Cell Bank, Federal University of Rio de Janeiro, Brazil). […] MTT formazan crystals were dissolved in DMSO, and the absorbance of each well was measured at 540 nm, using a micro-well system reader. […] MTT formazan crystals were dissolved in DMSO, and absorbance was measured at 540 nm using a microplate reader (ELX800, Biotek, Winooski, VT, USA). The half-maximal cytotoxic concentration (CC50) values were calculated from a Hill concentration–response curve. Results were expressed as the mean ± SD of three experiments. The selectivity index (SI) was calculated via the ratio between the CC50 of non-tumoral cells and the tumoral cell lines. […] For the resazurin assay, fluorescence was measured at 1 h intervals using a plate multi-reader (Infinite Multireader m200 Tecan) at 530–590 nm. […]

[7] = MTT cytotoxicity, non-tumoral endothelial cells; type: cell-based, human; details: human, HUVEC cells (non-tumoral), pH 7.4
Procedure: as §1

[8] = system: HUVEC (human umbilical vein endothelial cells); assay: MTT cytotoxicity, non-tumoral endothelial cells; type: cell-based; details: 24 h
Procedure: as §1

Row | Molecule | Viability (%) SK-MEL-28 [1] | Viability (%) NCI-H460 [2] | Viability (%) SF295 [3] | Anti-inflammatory activity, NOx release (in words) [4] | Reduction of NOx release vs control M1 cells (LPS+ group) [4] | Anti-inflammatory activity, IL-6 release (in words) [5] | Reduction of IL-6 release vs control M1 cells (LPS+ group) [5] | Cytotoxicity against macrophages (in words) [6] | CC50 ([1]; Homo sapiens, SK-MEL-28) | SI (selectivity index) SK-MEL-28 [1] | CC50 at 24 h [7] | CC50 [1] | CC50 [8]
1 | C=C1C(=O)OC2(O)C(=O)C3(C)CCC(=O)C(C)(OC(C)=O)CC(OC(C)=O)C12O3 (stereo not drawn) [Compound 7c.1, 8,10-diacetoxy-4(7)-epoxy-6-hydroxy-1,5-oxo-germacr-11(13)-en-6(12)-olide] | 77.3 ± 0.3% | 88.7 ± 6.7% | 87.0 ± 4.7% | strongly reduced | ~77% | strongly reduced | ~77% | less cytotoxicity against macrophages | – | – | – | – | –
2 | CC(=O)OCC1=C2C(OC(C)=O)CC(C)(OC(C)=O)C3(O)CCC(C)(O3)C(O)C2OC1=O (stereo not drawn) [Compound 7, 5-hydroxy-hirsutinolide] | 76.2 ± 7.5% | 89.1 ± 3.9% | 86.7 ± 3.8% | – | – | – | – | – | – | – | – | – | –
3 | CC(=O)OCC1=C2C(OC(C)=O)CC(C)(OC(C)=O)C3(O)CCC(C)(O3)C(OC(C)=O)C2OC1=O (stereo not drawn) [Compound 7a, 5-acetoxy-hirsutinolide] | 17.1 ± 3.3% | 74.6 ± 1.3% | 86.9 ± 4.3% | strongly reduced | ~77% | strongly reduced | ~77% | less cytotoxicity against macrophages | 5 µM | 2.5 | 12.7 µM | – | –
4 | C=C1C(=O)OC2C(OC(C)=O)C3(C)CC4C12C(OC(C)=O)CC(C)(OC(C)=O)C4(O)O3 (stereo not drawn) [Compound 4, 5,8-diacetoxy-2-epi-vernomargolide-1,4-cyclosemiacetal] | 96.4 ± 6.9% | 100.2 ± 2.7% | 94.7 ± 1.1% | – | – | – | – | – | – | – | – | – | –
5 | glaucolide A [Compound 11, reference compound] | 56.3 ± 1.4% | 95.1 ± 4.6% | 91.8 ± 3.3% | – | – | – | – | – | – | – | – | 14.6 µM | 20.4 µM
6 | C=C(C)C(=O)OC1CC(C)(O)C2(O)CCC(C)(/C=C3/OC(=O)C(COC(C)=O)=C31)O2 (stereo not drawn) [Compound 10, piptocarphin A, reference compound] | 23.1 ± 4.2% | 104.8 ± 1.6% | 93.2 ± 3.2% | – | – | – | – | – | 6.7 µM | 1.9 | 12.5 µM | – | –
7 | C=C1C(=O)OC2C(OC(C)=O)C3(C)CCC(OC(C)=O)(O3)C3(C)CC(OC(C)=O)C12O3 (stereo not drawn) [Compound 8a, 1,5,8-triacetoxy-1(4),7(10)-diepoxy-germacr-11(13)-en-6(12)-o1ide] | 5.3 ± 0.3% | 53.1 ± 0.0% | 67.3 ± 4.0% | – | – | – | – | – | 3.1 µM | 3.0 | 9 µM | – | –
8 | C=C1C(=O)OC2C(OC(C)=O)C3(C)CC4C12C(OC(C)=O)CC1(C)OC(C)(C)OC41O3 (stereo not drawn) [Compound 6, 5,8-diacetoxy-2-epi-vernomargolide-1,4-cycloacetal-1,10-acetonide] | 85.9 ± 4.0% | 90.4 ± 1.5% | 90.4 ± 3.7% | – | – | – | – | – | – | – | – | – | –
9 | C=C1C(=O)OC2C(OC(C)=O)C(C)(O)CC3C(=O)C(C)(O)CC(OC(C)=O)C132 (stereo not drawn) [Compound 9a, 5,8-diacetoxy-vernomargolide] | 73.8 ± 3.1% | 84.8 ± 0.9% | 85.9 ± 5.0% | – | – | – | – | – | – | – | – | – | –
